Results as given in PubChem BioAssay (NCI).
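Interpolation was linear, between the two tested concentrations surrounding the appropriate level; five concentrations were tested over 48 hours in 96-well plates. GI50: concentration for 50% inhibition of growth. TGI: concentration producing complete growth inhibition.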

Key:
Assay in all cases: NCI anticancer screen, dose series, 48 h
SK-OV-3 ovarian = system: SK-OV-3 ovarian
TK-10 renal = system: TK-10 renal
OVCAR-3 ovarian = system: OVCAR-3 ovarian
OVCAR-5 ovarian = system: OVCAR-5 ovarian
HCT-15 colon = system: HCT-15 colon
EKVX NSCLC = system: EKVX NSCLC
SK-MEL-28 melanoma = system: SK-MEL-28 melanoma
SK-MEL-2 melanoma = system: SK-MEL-2 melanoma
NCI-H460 lung = system: NCI-H460 lung
OVCAR-4 ovarian = system: OVCAR-4 ovarian

Compound `CCSc1nc(N)c(C#N)c(-c2ccc(OC)c(OC)c2)c1C#N` has a GI50 (SK-OV-3 ovarian) of 15.4 µM, a TGI (SK-OV-3 ovarian) greater than 50 µM and a GI50 (TK-10 renal) of 49.6 µM. For the same compound, the TGI (TK-10 renal) was greater than 50 µM, the GI50 (OVCAR-3 ovarian) was 26 µM and the TGI (OVCAR-3 ovarian) was greater than 50 µM. The GI50 (OVCAR-5 ovarian) was greater than 50 µM, the TGI (OVCAR-5 ovarian) was greater than 50 µM and the GI50 (HCT-15 colon) was greater than 50 µM. For the same compound, the TGI (HCT-15 colon) was greater than 50 µM, the GI50 (EKVX NSCLC) was 32.2 µM and the TGI (EKVX NSCLC) was greater than 50 µM. It also gave a GI50 (SK-MEL-28 melanoma) greater than 50 µM, a TGI (SK-MEL-28 melanoma) greater than 50 µM and a GI50 (SK-MEL-2 melanoma) of 13.3 µM. The TGI (SK-MEL-2 melanoma) was greater than 50 µM, the GI50 (NCI-H460 lung) was 13.8 µM and the TGI (NCI-H460 lung) was 44.1 µM.
`Cn1c(=O)c2[nH]c(CCS)nc2n(C)c1=O` showed a TGI (SK-OV-3 ovarian) greater than 100 µM, a TGI (TK-10 renal) greater than 100 µM and a TGI (OVCAR-3 ovarian) greater than 100 µM. The TGI (OVCAR-4 ovarian) was greater than 100 µM, the TGI (OVCAR-5 ovarian) was greater than 100 µM and the TGI (HCT-15 colon) was greater than 100 µM. The TGI (EKVX NSCLC) was greater than 100 µM, the TGI (SK-MEL-28 melanoma) was greater than 100 µM and the TGI (SK-MEL-2 melanoma) was greater than 100 µM. For the same compound, the TGI (NCI-H460 lung) was greater than 100 µM.
`COc1cc2c3c(n(CCCN=[N+]=[N-])c(=O)c2cc1OC)-c1ccc(NC(C)=O)cc1C3=O` showed a GI50 (SK-OV-3 ovarian) greater than 50 µM, a TGI (SK-OV-3 ovarian) greater than 50 µM and a GI50 (TK-10 renal) greater than 50 µM. It also gave a TGI (TK-10 renal) greater than 50 µM, a GI50 (OVCAR-3 ovarian) greater than 50 µM and a TGI (OVCAR-3 ovarian) greater than 50 µM. It also gave a GI50 (OVCAR-4 ovarian) greater than 50 µM, a TGI (OVCAR-4 ovarian) greater than 50 µM and a GI50 (OVCAR-5 ovarian) greater than 50 µM. The TGI (OVCAR-5 ovarian) was greater than 50 µM, the GI50 (HCT-15 colon) was greater than 50 µM and the TGI (HCT-15 colon) was greater than 50 µM. The GI50 (EKVX NSCLC) was greater than 50 µM, the TGI (EKVX NSCLC) was greater than 50 µM and the GI50 (SK-MEL-28 melanoma) was greater than 50 µM. The TGI (SK-MEL-28 melanoma) was greater than 50 µM, the GI50 (SK-MEL-2 melanoma) was greater than 50 µM and the TGI (SK-MEL-2 melanoma) was greater than 50 µM. It also gave a GI50 (NCI-H460 lung) of 8.97 µM and a TGI (NCI-H460 lung) greater than 50 µM.
With `Cn1c(=S)c2[nH]c(SCc3cccnc3)nc2n(C)c1=O` the TGI (SK-OV-3 ovarian) was greater than 100 µM, the TGI (TK-10 renal) was greater than 100 µM and the TGI (OVCAR-3 ovarian) was greater than 100 µM. It also gave a TGI (OVCAR-4 ovarian) greater than 100 µM, a TGI (OVCAR-5 ovarian) greater than 100 µM and a TGI (HCT-15 colon) greater than 100 µM. For the same compound, the TGI (EKVX NSCLC) was greater than 100 µM, the TGI (SK-MEL-28 melanoma) was greater than 100 µM and the TGI (SK-MEL-2 melanoma) was greater than 100 µM. For the same compound, the TGI (NCI-H460 lung) was greater than 100 µM.
`Cc1cccc(/C=N/N=C(\N)NO)n1` was tested, and the TGI (SK-OV-3 ovarian) was greater than 100 µM, the TGI (TK-10 renal) was greater than 100 µM and the TGI (OVCAR-3 ovarian) was greater than 100 µM. For the same compound, the TGI (OVCAR-4 ovarian) was greater than 100 µM, the TGI (EKVX NSCLC) was greater than 100 µM and the TGI (SK-MEL-28 melanoma) was greater than 100 µM. For the same compound, the TGI (SK-MEL-2 melanoma) was greater than 100 µM and the TGI (NCI-H460 lung) was greater than 100 µM.
`CCN1Cc2c(/C=C/c3ccccc3)nc3ccc(OC)cc3c2N(c2cccc(Cl)c2)C1` showed a GI50 (SK-OV-3 ovarian) of 1.88 µM, a TGI (SK-OV-3 ovarian) of 4.4 µM and a GI50 (TK-10 renal) of 1.62 µM. The TGI (TK-10 renal) was 3.43 µM, the GI50 (OVCAR-3 ovarian) was 1.62 µM and the TGI (OVCAR-3 ovarian) was 3.08 µM. It also gave a GI50 (OVCAR-4 ovarian) of 2.8 µM, a TGI (OVCAR-4 ovarian) of 8.44 µM and a GI50 (OVCAR-5 ovarian) of 1.49 µM. It also gave a TGI (OVCAR-5 ovarian) of 2.97 µM, a GI50 (HCT-15 colon) of 1.74 µM and a TGI (HCT-15 colon) of 3.63 µM. The GI50 (EKVX NSCLC) was 1.79 µM, the TGI (EKVX NSCLC) was 3.9 µM and the GI50 (SK-MEL-28 melanoma) was 1.78 µM. The TGI (SK-MEL-28 melanoma) was 3.28 µM, the GI50 (SK-MEL-2 melanoma) was 1.72 µM and the TGI (SK-MEL-2 melanoma) was 3.56 µM. It also gave a GI50 (NCI-H460 lung) of 1.64 µM and a TGI (NCI-H460 lung) of 3.27 µM.
For `COc1ccc(C#CC2=C(Br)C(=O)OC2)cc1`, the GI50 (TK-10 renal) was 1.94 µM, the TGI (TK-10 renal) was 16.2 µM and the GI50 (OVCAR-3 ovarian) was 1.61 µM. The TGI (OVCAR-3 ovarian) was 7 µM, the GI50 (OVCAR-4 ovarian) was 2.46 µM and the TGI (OVCAR-4 ovarian) was 11.4 µM. For the same compound, the GI50 (OVCAR-5 ovarian) was 14.7 µM, the TGI (OVCAR-5 ovarian) was 28.8 µM and the GI50 (HCT-15 colon) was 2.63 µM. The TGI (HCT-15 colon) was 11.3 µM, the GI50 (EKVX NSCLC) was 6.9 µM and the TGI (EKVX NSCLC) was 17 µM. The GI50 (SK-MEL-28 melanoma) was 5.54 µM, the TGI (SK-MEL-28 melanoma) was 23.3 µM and the GI50 (SK-MEL-2 melanoma) was 23 µM. For the same compound, the TGI (SK-MEL-2 melanoma) was greater than 50 µM, the GI50 (NCI-H460 lung) was 10 µM and the TGI (NCI-H460 lung) was greater than 50 µM.
`CC(C(=O)c1ccc(O)cc1)C1(O)C(=O)Nc2c(Cl)cc(Cl)cc21` (centres undefined) gave a TGI (SK-OV-3 ovarian) greater than 100 µM, a TGI (TK-10 renal) greater than 100 µM and a TGI (OVCAR-3 ovarian) greater than 84.3 µM. The TGI (OVCAR-4 ovarian) was 50.5 µM, the TGI (OVCAR-5 ovarian) was greater than 100 µM and the TGI (HCT-15 colon) was greater than 100 µM. It also gave a TGI (EKVX NSCLC) greater than 100 µM, a TGI (SK-MEL-28 melanoma) of 78.1 µM and a TGI (SK-MEL-2 melanoma) greater than 100 µM. For the same compound, the TGI (NCI-H460 lung) was greater than 100 µM.
